Reference: patent publication US10900927B2, “Graphene field effect transistors for detection of ions” (UNIVERSITY OF SOUTH CAROLINA, priority 2018, dated 2021)

Legend:
[1] = system: Ca2+-activated non-selective cation (NSC) channels on the T84 cells; assay: K+ efflux of T84 cells activated with A23187, measured with the GISFET; assay type: cell-based, human; parameters: dose or concentration left out as unconfirmed; conditions: T84 cells in normal saline solution
Description: In Example 2, GISFETs as contemplated by the present invention were fabricated as described in Example 1 and were then used to measure the K^+ efflux of human colonic epithelial cells. FIG. 9 is a schematic illustrating the use of the graphene ion sensitive field effect transistor (GISFET) of the present invention to determine the K^+ efflux from cells.
Specifically, human colonic T84 epithelial cells were used to investigate performance of the GISFET of the present invention. The Ca^2+-activated non-selective cation (NSC) channels on the T84 cells were activated with Ca^2+ ionophore A23187 ([…]), and then the corresponding K^+ efflux was detected and quantified by measuring the extracellular K+ ion concentration.
First, and referring to FIG. 9, cells 150 were plated on 25 millimeter diameter graphene-coated glass coverslips 148 and placed underneath of a specially designed mold 146 in a well plate 144. […]
Referring now to FIG. 10, after about 2 minutes of stabilization of the GISFET 101 in the buffer solution 152 in the well plate 144, the A23187 activating chemical was added to the well plate 144, which caused a consistent increase in current for about 20 minutes thereafter. […] By calculating the K^+ concentration based on the calibration data, the K^+ concentration could then be determined to be about 50 uM. […]

[2] = K+ versus Na+; cited from earlier work

Row | Structure (SMILES) | duration of consistent increase in GISFET current after addition [1] | extracellular K+ concentration from K+ efflux after activation ([1]; calculated from GISFET calibration data) | selectivity to K+ ions over Na+ ions (weaker valinomycin-Na+ complex) [2]
1 | CNc1ccc2oc(C[C@H]3O[C@@]4(CC[C@H]3C)O[C@H]([C@H](C)C(=O)c3ccc[nH]3)[C@H](C)C[C@H]4C)nc2c1C(=O)O [A23187] | about 20 minutes | about 50 uM | 
2 | CC(C)[C@@H]1NC(=O)[C@H](C)OC(=O)[C@@H](C(C)C)NC(=O)[C@@H](C(C)C)OC(=O)[C@H](C(C)C)NC(=O)[C@H](C)OC(=O)[C@@H](C(C)C)NC(=O)[C@@H](C(C)C)OC(=O)[C@H](C(C)C)NC(=O)[C@H](C)OC(=O)[C@@H](C(C)C)NC(=O)[C@@H](C(C)C)OC1=O [valinomycin] |  |  | 10,000 fold
